Source: patent US4357331A, “7αMethoxycephalosporin derivatives” (Meiji Seika Kaisha, Ltd., priority 1978, dated 1982)
In brackets after ≈: the same amount, converted by molar mass. Where two headings read alike, the source gives them in different places.

Assays:
Escherichia coli No. 29 = test: in vivo antibacterial activity (ED50) in mice challenged intraperitoneally with E. coli No. 29; design: species or system Escherichia coli No. 29; Male ddY mice; conditions: male ddY mice, fatality over a week, Probit method
[1] = tested on: Serratia marcescens No. 1; test: MIC, minimum inhibitory concentration (nutrient agar, 37° C., 20 hours); assay type: cell-based; conditions: read-out: MIC (minimum inhibitory concentration)
[2] = tested on: Bacillus anthracis No. 119; test: microbe, parasite or virus in culture; assay type: cell-based; conditions: NO.119, 20 h, read-out: MIC (minimum inhibitory concentration)
Proteus morganii = test: MIC, minimum inhibitory concentration (nutrient agar, 37° C., 20 hours); assay type: cell-based; conditions: Morganella morganii
Escherichia coli 255 = test: as above; assay type: cell-based
[3] = tested on: Pseudomonas aeruginosa IFO 3080; test: as above; assay type: cell-based; conditions: IFO3080
[4] = tested on: Staphylococcus aureus 209p; test: as above; assay type: cell-based
Klebsiella pneumoniae = test: as above; assay type: cell-based; conditions: read-out: MIC (minimum inhibitory concentration)
Citrobacter freundii = test: as above; assay type: cell-based
[5] = Serratia marcescens No. 1, 37° C., 20 hours

SMILES	ED50 with Escherichia coli No. 29 (Escherichia coli No. 29; oral)	ED50 with Escherichia coli No. 29 (Escherichia coli No. 29; subcutaneous)	MIC [1, 5]	MIC [2]	MIC (Proteus morganii)	MIC (Escherichia coli 255)	MIC [3]	MIC [4]	MIC (Klebsiella pneumoniae; 37° C., 20 hours)	MIC (Citrobacter freundii)	MIC ([1]; Serratia marcescens, NO.1, 20 h)	MIC (Klebsiella pneumoniae; 20 h)
CCOC(=O)C(N)CSCC(=O)NC1(OC)C(=O)N2C(C(=O)OCOC(=O)C(C)(C)C)=C(CSc3nnnn3C)CSC21 (stereo not drawn) [Example 17, pivaloyloxymethyl 7β-(2D-2-amino-2-ethoxycarbonyl)ethylthioacetamido-7α-methoxy-3-(1-methyl-1H-tetrazol-5-yl)thiomethyl-3-cephem-4-carboxylate]	0.86 mg/mouse	0.046 mg/mouse										
CC1=C(C(=O)O)N2C(=O)[C@@H](NC(=O)[C@H](N)c3ccccc3)[C@H]2SC1 [Cephalexin, cephalexin, reference compound]	1.60 mg/mouse											
COC1(NC(=O)CSCCN)C(=O)N2C(C(=O)O)=C(CSc3nnnn3C)CSC21 (stereo not drawn) [Ex. 1, 7β-aminoethylthioacetamido-7α-methoxy-3-(1-methyl-1H-tetrazol-5-yl)thiomethyl-3-cephem-4-carboxylic acid]			3.13 µg/mL (≈ 6.58 µM)	0.39 µg/mL (≈ 0.82 µM)	6.25 µg/mL (≈ 13.1 µM)	6.25 µg/mL (≈ 13.1 µM)	25 µg/mL (≈ 52.6 µM)	1.56 µg/mL (≈ 3.28 µM)	3.13 µg/mL (≈ 6.58 µM)	1.56 µg/mL (≈ 3.28 µM)		
CO[C@@]1(NC(=O)Cc2cccs2)C(=O)N2C(C(=O)O)=C(COC(N)=O)CS[C@@H]21 [Cefoxitin, cefoxitin, reference compound]	> 5.0 mg/mouse	0.43 mg/mouse		3.13 µg/mL (≈ 7.32 µM)	6.25 µg/mL (≈ 14.6 µM)	50 µg/mL (≈ 117 µM)	100 µg/mL (≈ 234 µM)	1.56 µg/mL (≈ 3.65 µM)		50 µg/mL (≈ 117 µM)	3.13 µg/mL (≈ 7.32 µM)	3.13 µg/mL (≈ 7.32 µM)
COC(=O)C(N)CSCC(=O)NC1(OC)C(=O)N2C(C(=O)OC(C)OC(C)=O)=C(CSc3nnnn3C)CSC21 (stereo not drawn) [Example 18, 1-acetoxyethyl 7β-(2D-2-amino-2-methoxycarbonyl)ethylthioacetamido-7α-methoxy-3-(1-methyl-1H-tetrazol-5-yl)thiomethyl-3-cephem-4-carboxylate]	0.36 mg/mouse	0.24 mg/mouse										
COC1(NC(=O)CSCCNC(N)=O)C(=O)N2C(C(=O)O)=C(CSc3nnnn3C)CSC21 (stereo not drawn) [Ex. 2, 7β-ureidoethylthioacetamido-7α-methoxy-3-(1-methyl-1H-tetrazol-5-yl)thiomethyl-3-cephem-4-carboxylic acid]			3.13 µg/mL (≈ 6.04 µM)	0.78 µg/mL (≈ 1.5 µM)	3.13 µg/mL (≈ 6.04 µM)	12.5 µg/mL (≈ 24.1 µM)	25 µg/mL (≈ 48.2 µM)	3.13 µg/mL (≈ 6.04 µM)	1.56 µg/mL (≈ 3.01 µM)	25 µg/mL (≈ 48.2 µM)		
COC1(NC(=O)CSCC(N)C(=O)O)C(=O)N2C(C(=O)OC(C)OC(=O)C(C)(C)C)=C(CSc3nnnn3C)CSC21 (stereo not drawn) [Example 19, 1-pivaloyloxyethyl 7β-(2D-2-amino-2-carboxy)ethylthioacetamido-7α-methoxy-3-(1-methyl-1H-tetrazol-5-yl)thiomethyl-3-cephem-4-carboxylate]	0.25 mg/mouse	0.17 mg/mouse										
COC1(NC(=O)CSCCC(N)C(=O)O)C(=O)N2C(C(=O)[O-])=C(C[n+]3ccc(C(N)=O)cc3)CSC21 (stereo not drawn) [Ex. 12, 7β-(3DL-3-amino-carboxy)propylthioacetamido-7α-methoxy-3-(p-carbamoylpyridinium)methyl-3-cephem-4-carboxylic acid]			12.5 µg/mL (≈ 23.2 µM)	1.56 µg/mL (≈ 2.89 µM)	12.5 µg/mL (≈ 23.2 µM)	3.13 µg/mL (≈ 5.8 µM)	6.25 µg/mL (≈ 11.6 µM)	6.25 µg/mL (≈ 11.6 µM)	6.25 µg/mL (≈ 11.6 µM)	25 µg/mL (≈ 46.3 µM)		
COC1(NC(=O)CSCCC(N)C(=O)O)C(=O)N2C(C(=O)O)=C(CSc3nnnn3C)CSC21 (stereo not drawn) [Ex. 11, sodium 7β-(3D-3-amino-3-carboxy)propylthioacetamido-7α-methoxy-3-(1-methyl-1H-tetrazol-5-yl)thiomethyl-3-cephem-4-carboxylate]			0.78 µg/mL	0.2 µg/mL	3.13 µg/mL	0.78 µg/mL	100 µg/mL	3.13 µg/mL	1.56 µg/mL	25 µg/mL		
